Experiments:
human MR = molecular target: T1, human MR (Homo sapiens, UniProt P08235); test: Mineralocorticoid Receptor Binding Assay ([3H]-aldosterone); details: [3H]-aldosterone binding, human MR expressed in Sf9 cells; read-out: MR Ki
T1 construct: The full length human MR gene is cloned from a human kidney or human brain cDNA library; His tag from the pAcHLT vector (own knowledge); made in house; host or cells: Sf9 insect cells (baculovirus, pAcHLT transfer vector)
T1 sequence (P08235 1-984): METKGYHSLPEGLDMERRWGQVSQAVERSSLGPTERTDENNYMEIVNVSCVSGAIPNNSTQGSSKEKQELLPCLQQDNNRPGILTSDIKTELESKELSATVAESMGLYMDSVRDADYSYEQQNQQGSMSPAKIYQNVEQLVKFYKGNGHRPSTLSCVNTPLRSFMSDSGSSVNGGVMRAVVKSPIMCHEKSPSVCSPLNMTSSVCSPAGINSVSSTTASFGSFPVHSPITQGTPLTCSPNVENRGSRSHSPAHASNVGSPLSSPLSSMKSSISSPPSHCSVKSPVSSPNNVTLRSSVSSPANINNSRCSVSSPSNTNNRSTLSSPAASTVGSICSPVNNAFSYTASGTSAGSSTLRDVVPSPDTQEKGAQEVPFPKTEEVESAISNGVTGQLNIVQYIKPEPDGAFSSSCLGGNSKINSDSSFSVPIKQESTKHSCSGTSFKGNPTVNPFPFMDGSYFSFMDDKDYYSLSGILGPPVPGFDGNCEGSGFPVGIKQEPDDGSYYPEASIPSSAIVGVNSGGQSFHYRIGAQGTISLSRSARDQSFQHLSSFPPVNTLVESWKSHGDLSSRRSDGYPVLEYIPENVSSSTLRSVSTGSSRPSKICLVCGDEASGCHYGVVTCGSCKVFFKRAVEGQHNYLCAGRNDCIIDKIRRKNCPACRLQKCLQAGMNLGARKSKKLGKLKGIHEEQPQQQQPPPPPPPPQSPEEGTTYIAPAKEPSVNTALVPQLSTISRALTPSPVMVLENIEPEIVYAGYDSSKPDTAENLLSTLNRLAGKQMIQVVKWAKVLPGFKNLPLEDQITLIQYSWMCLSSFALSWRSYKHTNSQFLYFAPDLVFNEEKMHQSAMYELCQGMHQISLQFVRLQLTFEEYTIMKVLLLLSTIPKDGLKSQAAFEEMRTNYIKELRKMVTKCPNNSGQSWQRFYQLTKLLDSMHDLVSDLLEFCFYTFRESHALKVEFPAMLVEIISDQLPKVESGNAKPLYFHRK
Procedure: (§1) All ligands, radioligands, solvents, and reagents employed in the binding assays are readily available from commercial sources, or can be readily synthesized by the ordinarily skilled artisan.
The full length human MR gene is cloned from a human kidney or human brain cDNA library. […] The PCR reaction is performed in a final volume of 50 μl containing about 1 μl of a 50× stock solution of polymerase; about 1 μl of a 50× stock solution of dNTP; about 5 μl of an appropriate PCR buffer; about 1 μl of each primer; about […] of a H. kidney or H. brain cDNA library; and about 36 μl of water. The reaction is allowed to denature for about 30 seconds at 95 degrees Celsius, anneal for about 30 seconds at 55 degrees Celsius, and extend for about 5 minutes at 72 degrees Celsius, the sequence being repeated for a total of about 35 cycles. […] To extract the cDNA product from the agarose gel, the QIAEX II Gel Extraction protocol (QIAGEN, Inc.) is employed according to the manufacturer's instructions. Following extraction, the MR cDNA is cloned into an appropriate cloning vector (Zero Blunt TOPO PCR Cloning Kit Invitrogen, Inc.) and a pAcHLT-baculovinis transfer vector (B.D./Pharminogen), then expressed in SF9 insect cells, essentially according to manufacturer's instructions. Sf9 cells are grown at a scale where gram quantity cell pellets are obtained for subsequent use in the MR binding assay. Harvested cell pellets are lysed by repeated freeze-thaw cycles (about 4) in a suitable lysis buffer then centrifuged at about 1×10^3 G (with the supernatant being saved for future assays).
MR binding assays are performed in a final total volume of about 250 μl containing about 20-25 μg of protein and 0.5 nM of [^3H]-aldosterone plus varying concentrations of test compound or vehicle. The assay binding buffer consists of 30 mM sodium molybdate, 30 mM of TRIS-HCl, 5 mM sodium phosphate, 5 mM sodium pyrophosphate, and about 10% glycerol, pH=7.5.
Incubations are carried out at 4 degrees Celsius with shaking for about 16 hours. 200 μl aliquots of each incubation are filtered onto Millipore HA 0.45 micron 96-well filter plates, pre-moistened with cold 30 mM TRIS-HCl. The filter plates are suctioned dry with vacuum and immediately washed 3× with cold 30 mM TRIS-HCl. The plates are then punched out and the amount of receptor-ligand complex is determined by liquid scintillation counting using 4 ml of Ready Protein Plus™ liquid scintillation cocktail.
IC50 values (defined as the concentration of test compound required to decrease [^3H]-aldosterone binding by 50%/o) are then determined.

glucocorticoid receptor = molecular target: T2, glucocorticoid receptor (Homo sapiens, UniProt P04150); test: Glucocorticoid Receptor Binding Assay ([3H]-dexamethasone, A549 cell extract); details: [3H]-dexamethasone binding, read-out: GR Ki
T2 construct: containing 50-200 ug of A549 cell extract and 1.86 nM [^3H]-dexamethasone; host or cells: A549 human lung epithelial cells (sonicated cell extract)
T2 sequence (P04150 1-777): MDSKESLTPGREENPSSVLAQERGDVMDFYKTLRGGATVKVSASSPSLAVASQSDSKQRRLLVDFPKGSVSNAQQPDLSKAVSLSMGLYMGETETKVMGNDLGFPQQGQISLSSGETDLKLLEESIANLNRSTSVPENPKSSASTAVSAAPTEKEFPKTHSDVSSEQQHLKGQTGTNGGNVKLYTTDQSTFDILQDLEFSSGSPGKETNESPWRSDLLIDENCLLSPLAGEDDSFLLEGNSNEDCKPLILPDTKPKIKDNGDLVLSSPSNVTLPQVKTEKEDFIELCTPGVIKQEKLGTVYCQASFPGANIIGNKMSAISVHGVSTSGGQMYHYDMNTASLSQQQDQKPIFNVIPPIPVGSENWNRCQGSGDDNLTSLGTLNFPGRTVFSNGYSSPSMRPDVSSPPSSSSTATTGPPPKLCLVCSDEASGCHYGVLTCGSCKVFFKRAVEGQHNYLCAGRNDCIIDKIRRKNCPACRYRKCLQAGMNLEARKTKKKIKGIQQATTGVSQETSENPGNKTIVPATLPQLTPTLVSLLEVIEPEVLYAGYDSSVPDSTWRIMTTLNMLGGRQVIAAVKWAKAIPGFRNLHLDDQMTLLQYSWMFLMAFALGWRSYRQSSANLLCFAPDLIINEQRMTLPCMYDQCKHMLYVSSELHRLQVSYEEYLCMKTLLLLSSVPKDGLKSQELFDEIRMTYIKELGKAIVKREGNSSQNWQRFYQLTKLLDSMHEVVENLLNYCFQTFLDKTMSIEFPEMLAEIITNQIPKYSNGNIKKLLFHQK
Procedure: as §1
A549 human lung epithelial cells (ATCC) are grown at a scale where gram quantity cell pellets are obtained. Harvested cell pellets are washed twice in cold phosphate buffered saline, centrifuged, and resuspended in cold assay binding buffer. The assay binding buffer consists of 10% glycerol, 50 mM Tris-HCl (pH7.2), 75 mM sodium chloride, 1.5 mM magnesium chloride, 1.5 mM EDTA, and 10 mM sodium molybdate. Cell suspensions were lysed via sonication, centrifuged, and the “extract” supernatant is snap frozen and stored at −80 C until needed.
GR binding assays are performed in a final volume of 140 ul containing 50-200 ug of A549 cell extract and 1.86 nM [^3H]-dexamethasone (Amersham) plus varying concentrations of test compound or vehicle. Briefly, assays are prepared at RT in 96-well Fisher 3356 plates, each well containing 100 ul of A549 cell extract, 20 ul of [^3H]-dexamethasone, and 20 ul of test compound/vehicle. Incubations are carried out at 4 degrees Celsius for 16 hours. After incubation, 70 ul of 3× dextran-coated charcoal solution is added to each reaction, mixed, and incubated for 8 minutes at RT. 3×-dextran-coated charcoal solution consists of 250 ml assay binding buffer, 3.75 g Norit A charcoal (Sigma), and 1.25 g dextran T-70 (Amersham). Charcoal/unbound radioligand complexes are removed by centrifugation of the plate and 140 ul of supernatant from each well is transferred to another 96 well Optiplate (Packard Instruments). 200 ul of Microscint-20 scinillant (Packard Instruments) is added to each well and amount of receptor bound radioligand is determined using Packard Instruments TopCount instrument.

| SMILES | Ki (human MR) | Ki (glucocorticoid receptor) |
| --- | --- | --- |
| NC(=O)c1ccc(C=C2c3ccccc3CCc3ccccc32)cc1 [Example 85, 4-(10,11-Dihydro-dibenzo[a,d]cyclohepten-5-ylidenemethyl)-benzamide] | < 500 nM | < 500 nM |
| CC(=C1c2ccccc2CCc2cc(C)ccc21)c1cccc(NS(C)(=O)=O)c1 [Example 773] | < 500 nM | < 500 nM |
| CS(=O)(=O)Nc1cccc(/C=C2/c3ccc(F)cc3CCc3nc(Cl)sc32)c1 [Example 551] | < 500 nM | < 500 nM |
| COc1cccc(C=C2c3ccccc3CCc3ccccc32)c1F [Example 152, 5-(2-Fluoro-3-methoxy-benzylidene)-10,11-dihydro-5H-dibenzo[a,d]cycloheptene] | < 500 nM | < 10000 nM |
| O=c1[nH]c2cc(/C=C3\c4ccccc4CCc4c(Cl)cccc43)ccc2o1 [Example 221(b)] | < 500 nM | < 500 nM |
| CS(=O)(=O)Nc1ccc(/C=C2/c3ccc(F)cc3CCc3ncccc32)cc1 [Example 537] | < 500 nM | < 10000 nM |
| O=S(=O)(Nc1cccc(/C=C2\c3ccccc3CSc3ccccc32)c1)c1ccccc1 [Example 739] | < 500 nM | < 500 nM |
| C/C(=C1\c2ccccc2COc2cc(F)ccc21)c1ccc2[nH]c(=O)[nH]c2c1 [Example 839] | < 500 nM | < 500 nM |
| CS(=O)(=O)Nc1cccc(/C=C2\c3ccccc3CCc3c2cccc3C(F)F)c1 [Example 382] | < 500 nM | < 500 nM |
| Fc1ccc2c(c1)CCc1ncccc1/C2=C/c1ccc(C(F)F)cc1 [Example 543] | < 500 nM | < 10000 nM |
| COc1ccc2c(c1)CCc1cc(C)ccc1C2=Cc1cccc(NS(C)(=O)=O)c1 [Example 419] | < 500 nM | < 500 nM |

Results, then the compound that gave them:

| Ki (human MR) | Ki (glucocorticoid receptor) | SMILES |
| --- | --- | --- |
| < 500 nM | < 1000 nM | O=Cc1cccc2c1CCc1ccccc1/C2=C\c1cccc(O)c1 [Example 378] |
| < 500 nM | < 10000 nM | COc1ccc(OC)c(C=C2c3ccccc3CCc3ccccc32)c1 [Example 52, 5-(2,5-Dimethoxy-benzylidene)-10,11-dihydro-5H-dibenzo[a,d]cycloheptene] |
| < 500 nM | < 1000 nM | CS(=O)(=O)Nc1cccc(/C=C2\c3ccc(Cl)cc3CCc3ncccc32)c1 [Example 570] |
| < 500 nM | < 1000 nM | O=C(CO)Nc1cccc(C=C2c3ccccc3CCc3cc(Cl)ccc32)c1 [Example 300] |
| < 500 nM | < 1000 nM | Nc1n[nH]c2cc(C=C3c4ccc(F)cc4CCc4cc(F)ccc43)ccc12 [Example 460] |
| < 500 nM | < 10000 nM | CS(=O)(=O)Nc1cccc(/C=C2\c3cccnc3CCc3c(Cl)cccc32)c1 [Example 567] |
| < 500 nM | < 500 nM | CS(=O)(=O)Nc1cccc(/C=C2/c3ccccc3CCc3c(N)cccc32)c1 [Example 410] |
| < 500 nM | < 500 nM | Cc1ccc2c(c1)C(=Cc1cccc(NS(C)(=O)=O)c1)c1ccccc1CC2 [Example 301] |
| < 500 nM | < 1000 nM | Cn1c(=O)[nH]c2cc(C=C3c4ccc(F)cc4CCc4cc(F)ccc43)ccc21 [Example 459] |
| < 500 nM | < 500 nM | CS(=O)(=O)Nc1cc(F)cc(/C=C2/c3ccc(F)cc3CCc3nc(CF)ccc32)c1 [Example 598] |
| < 500 nM | < 500 nM | CC(=C1c2ccc(C)cc2CCc2cc(C)ccc21)c1cccc(NS(C)(=O)=O)c1 [Example 771] |
| < 500 nM | < 500 nM | CS(=O)(=O)Nc1cccc(C=C2c3ccccc3CCc3c(N)cccc32)c1 [Example 403] |
| < 500 nM | < 500 nM | COc1ccc2c(c1)COc1ccccc1C2C(C)c1cccc(NS(C)(=O)=O)c1 (racemic) [Example 752, N-{3-[1-(8-Methoxy-6,11-dihydro-dibenzo[b,e]oxepin-11-yl)-ethyl]-phenyl}-methanesulfonamide] |
| < 500 nM | < 1000 nM | O=c1[nH]c2cc(/C=C3\c4ccccc4COc4cc(F)ccc43)ccc2n1CCN1CCOCC1 [Example 607, 5-(3-Fluoro-6H-dibenzo[b,e]oxepin-11-ylidenemethyl)-1-(2-morpholin-4-yl-ethyl)-1,3-dihydro-benzoimidazol-2-one] |
| < 500 nM | < 10000 nM | NC(=O)c1cccc(C=C2c3ccccc3CCc3ccccc32)c1 [Example 84, 3-(10,11-Dihydro-dibenzo[a,d]cyclohepten-5-ylidenemethyl)-benzamide] |

Source: patent publication US20060063759A1, “Tricyclic steroid hormone nuclear receptor modulators” (priority 2002, published 2006)
